The values below are quoted from earlier work in publication PMC3836577 (Microbial Biotechnology, 2010).

Ends that are not written are not given here.

The series has as its system S. aureus Sa113. To be noted: literature value for comparison; ref Peschel et al., 2001.

Regarding “nisin (ITSISLCTPGCKTGALMGCNMKTATCHCSIHVSK; also: lantibiotic thioether rings and dehydrated residues not placed; UniProt P13068 24-57, looked up)”, the “Activity against Sa113 (MIC)” value is given as 14 µM.
